Legend:
human AT1R = target: T1, human AT1R (Homo sapiens, UniProt P30556); type: binding; details: HEK-293 cell membranes
T1 construct: host or cells: HEK-293
T1 sequence (P30556 1-359): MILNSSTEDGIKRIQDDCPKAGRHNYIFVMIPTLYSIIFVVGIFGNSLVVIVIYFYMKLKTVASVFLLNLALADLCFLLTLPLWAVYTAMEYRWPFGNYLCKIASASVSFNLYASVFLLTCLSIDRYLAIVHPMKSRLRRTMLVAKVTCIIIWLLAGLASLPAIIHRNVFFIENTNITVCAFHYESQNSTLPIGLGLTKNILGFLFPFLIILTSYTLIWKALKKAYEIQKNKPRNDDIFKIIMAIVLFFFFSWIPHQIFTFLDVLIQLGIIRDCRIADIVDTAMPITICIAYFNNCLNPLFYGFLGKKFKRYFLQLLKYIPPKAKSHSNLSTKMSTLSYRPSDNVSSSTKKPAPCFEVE

human AT2R = target: T2, human AT2R (Homo sapiens, UniProt P50052); type: binding; details: HEK-293 cell membranes
T2 construct: host or cells: HEK-293
T2 sequence (P50052 1-363): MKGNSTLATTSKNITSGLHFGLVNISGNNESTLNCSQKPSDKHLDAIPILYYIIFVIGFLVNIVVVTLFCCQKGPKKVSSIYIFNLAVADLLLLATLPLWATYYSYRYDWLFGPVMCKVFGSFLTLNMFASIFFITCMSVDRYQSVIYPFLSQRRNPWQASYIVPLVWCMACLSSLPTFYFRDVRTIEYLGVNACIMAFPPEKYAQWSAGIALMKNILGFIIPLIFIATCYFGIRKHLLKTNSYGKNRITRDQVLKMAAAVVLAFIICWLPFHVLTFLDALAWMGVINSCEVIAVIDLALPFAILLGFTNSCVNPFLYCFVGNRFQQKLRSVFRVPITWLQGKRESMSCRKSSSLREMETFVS

[1] = Stability in human liver microsomes; type: in vitro ADME; details: half-life
Method: Stability in liver microsomes. Human, mouse and rat liver microsomes were used to assess the metabolic stability for the compounds. Metabolic stability was determined in 0.5 mg/mL human, mouse or rat liver microsomes at a compound concentration of 1 μM in 100 mM potassium phosphate buffer (pH 7.4) in a total incubation volume of 500 μL by Eurofins. The assay matrix was: human liver microsomes: mixed gender and pool of 50, rat liver microsomes: male, Sprague-Dawley, pool of 100 or more and mouse liver microsomes: male,CD-1, pool of 250 or more. Final microsomal protein concentration: 0.1mg/mL. The test concentration was 0.1 μM with 0.01% DMSO, 0.25% acetonitrile and 0.25% methanol by default. […] The reaction was initiated by adding NADPH-generating system and was incubated for 0, 15, 30, 45, and 60 min. The reaction was stopped by transferring the incubation mixture to acetonitrile/methanol. Samples were then mixed and centrifuged. Four reference compounds were tested in each assay. Propranolol and imipramine are relatively stable, whereas verapamil and terfenadine are readily metabolized inhuman liver microsomes. Samples were analyzed by HPLC-MS/MS using selected reaction monitoring. The HPLC system consisted of a binary LC pump with autosampler, a C-18 column, and a gradient. Peak areas corresponding to the test compound were recorded. The compound remaining was calculated by comparing the peak area at each time point to time zero. The half-life was calculated from the slope of the initial linear range of the logarithmic curve of compound remaining (%) vs. time, assuming first order kinetics. In addition, the intrinsic clearance (Clint) was calculated.^19,20

CYP2B6 = target: T3, CYP2B6 (Homo sapiens, UniProt P20813); assay: CYP450 inhibition assay, pooled human liver microsomes, bupropion substrate; details: both, human, pooled human liver microsomes, pH 7.4, probe bupropion
T3 sequence (P20813 1-491): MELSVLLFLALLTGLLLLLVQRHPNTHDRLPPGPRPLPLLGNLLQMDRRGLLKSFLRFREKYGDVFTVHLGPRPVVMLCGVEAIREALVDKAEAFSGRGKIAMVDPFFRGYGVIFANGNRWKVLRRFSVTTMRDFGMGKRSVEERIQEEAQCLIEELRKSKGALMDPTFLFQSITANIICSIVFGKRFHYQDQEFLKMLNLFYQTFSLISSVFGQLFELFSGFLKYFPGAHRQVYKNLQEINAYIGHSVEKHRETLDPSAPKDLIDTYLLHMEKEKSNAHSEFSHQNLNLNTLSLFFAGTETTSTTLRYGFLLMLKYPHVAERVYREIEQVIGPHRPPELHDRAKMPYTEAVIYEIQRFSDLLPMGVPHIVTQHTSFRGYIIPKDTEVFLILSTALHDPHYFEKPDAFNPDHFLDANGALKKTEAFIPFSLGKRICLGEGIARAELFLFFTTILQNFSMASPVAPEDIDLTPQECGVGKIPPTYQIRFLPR

CYP3A [2] = assay: CYP450 inhibition assay, pooled human liver microsomes, midazolam substrate; details: both, human, pooled human liver microsomes, pH 7.4, probe midazolam
CYP1A = target: T4, CYP1A (Homo sapiens, UniProt P05177); assay: CYP450 inhibition assay, pooled human liver microsomes, phenacetin substrate; details: both, human, pooled human liver microsomes, pH 7.4, probe phenacetin
T4 sequence (P05177 1-516): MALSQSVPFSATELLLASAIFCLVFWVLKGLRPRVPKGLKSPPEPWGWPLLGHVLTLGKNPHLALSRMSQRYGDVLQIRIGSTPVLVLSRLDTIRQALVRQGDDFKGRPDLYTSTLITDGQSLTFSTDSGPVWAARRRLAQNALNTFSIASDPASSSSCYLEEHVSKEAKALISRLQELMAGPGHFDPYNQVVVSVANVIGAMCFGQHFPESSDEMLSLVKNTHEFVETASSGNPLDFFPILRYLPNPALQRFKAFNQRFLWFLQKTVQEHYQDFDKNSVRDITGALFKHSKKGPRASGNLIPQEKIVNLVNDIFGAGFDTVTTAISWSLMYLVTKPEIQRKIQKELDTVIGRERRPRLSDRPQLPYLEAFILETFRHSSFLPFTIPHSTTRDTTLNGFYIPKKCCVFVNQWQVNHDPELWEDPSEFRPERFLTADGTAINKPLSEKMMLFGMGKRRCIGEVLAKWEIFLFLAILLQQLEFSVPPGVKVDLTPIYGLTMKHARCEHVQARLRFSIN

CYP2C9 = CYP2C9 (Homo sapiens, UniProt P11712); assay: CYP450 inhibition assay, pooled human liver microsomes, diclofenac substrate; details: both, human, pooled human liver microsomes, pH 7.4, probe diclofenac
Chain of CYP2C9 (P11712 whole entry): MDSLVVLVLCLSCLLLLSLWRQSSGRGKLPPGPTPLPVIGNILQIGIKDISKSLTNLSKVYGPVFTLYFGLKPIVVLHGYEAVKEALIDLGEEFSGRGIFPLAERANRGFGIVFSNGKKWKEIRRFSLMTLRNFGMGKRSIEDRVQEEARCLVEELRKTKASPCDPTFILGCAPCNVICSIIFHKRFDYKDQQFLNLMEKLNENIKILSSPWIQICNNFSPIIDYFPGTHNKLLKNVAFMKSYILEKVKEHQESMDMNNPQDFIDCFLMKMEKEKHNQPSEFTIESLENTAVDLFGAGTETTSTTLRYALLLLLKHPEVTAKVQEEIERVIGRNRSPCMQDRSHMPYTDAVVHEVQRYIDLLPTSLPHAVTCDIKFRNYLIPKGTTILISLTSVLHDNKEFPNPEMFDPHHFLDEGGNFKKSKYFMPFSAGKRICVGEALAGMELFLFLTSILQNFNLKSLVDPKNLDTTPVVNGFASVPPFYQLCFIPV

CYP2C19 = CYP2C19 (Homo sapiens, UniProt P33261); assay: CYP450 inhibition assay, pooled human liver microsomes, omeprazole substrate; details: both, human, pooled human liver microsomes, pH 7.4, probe omeprazole
Chain of CYP2C19 (P33261 whole entry): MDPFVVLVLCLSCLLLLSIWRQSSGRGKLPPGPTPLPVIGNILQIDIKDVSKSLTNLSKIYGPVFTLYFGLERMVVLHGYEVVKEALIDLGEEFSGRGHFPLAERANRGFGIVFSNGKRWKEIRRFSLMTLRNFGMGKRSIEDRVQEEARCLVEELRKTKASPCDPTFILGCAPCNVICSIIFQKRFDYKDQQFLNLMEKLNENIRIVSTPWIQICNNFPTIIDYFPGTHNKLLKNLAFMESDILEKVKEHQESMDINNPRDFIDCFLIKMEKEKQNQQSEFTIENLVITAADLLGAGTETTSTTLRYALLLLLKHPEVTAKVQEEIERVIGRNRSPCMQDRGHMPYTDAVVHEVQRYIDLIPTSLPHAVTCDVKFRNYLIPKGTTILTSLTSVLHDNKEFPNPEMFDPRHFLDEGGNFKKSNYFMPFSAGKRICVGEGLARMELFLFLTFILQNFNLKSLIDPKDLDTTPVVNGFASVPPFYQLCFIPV

CYP2C8 = target: T5, CYP2C8 (Homo sapiens, UniProt P10632); assay: CYP450 inhibition assay, pooled human liver microsomes, amodiaquine substrate; details: both, human, pooled human liver microsomes, pH 7.4, probe amodiaquine
T5 sequence (P10632 1-490): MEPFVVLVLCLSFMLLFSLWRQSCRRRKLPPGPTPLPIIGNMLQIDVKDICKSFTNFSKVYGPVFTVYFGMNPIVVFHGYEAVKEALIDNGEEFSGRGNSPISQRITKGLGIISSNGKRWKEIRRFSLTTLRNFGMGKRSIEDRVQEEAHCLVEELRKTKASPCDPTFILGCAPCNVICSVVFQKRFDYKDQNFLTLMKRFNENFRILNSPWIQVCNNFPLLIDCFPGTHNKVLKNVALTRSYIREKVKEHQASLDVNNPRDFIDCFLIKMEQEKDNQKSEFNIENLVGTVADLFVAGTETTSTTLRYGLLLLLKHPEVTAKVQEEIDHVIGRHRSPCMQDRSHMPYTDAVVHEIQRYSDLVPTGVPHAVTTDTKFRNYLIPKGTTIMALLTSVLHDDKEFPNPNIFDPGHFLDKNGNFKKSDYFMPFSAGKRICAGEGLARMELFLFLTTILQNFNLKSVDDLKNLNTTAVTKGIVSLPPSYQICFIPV

CYP3A [3] = assay: CYP450 inhibition assay, pooled human liver microsomes, testosterone substrate; details: both, human, pooled human liver microsomes, pH 7.4, probe testosterone, CYP 450 Inhibition CYP3A testosterone, at 10 μM
CYP2D6 = CYP2D6 (Homo sapiens, UniProt P10635); assay: CYP450 inhibition assay, pooled human liver microsomes, dextromethorphan substrate; details: both, human, pooled human liver microsomes, pH 7.4, probe dextromethorphan
Chain of CYP2D6 (P10635 whole entry): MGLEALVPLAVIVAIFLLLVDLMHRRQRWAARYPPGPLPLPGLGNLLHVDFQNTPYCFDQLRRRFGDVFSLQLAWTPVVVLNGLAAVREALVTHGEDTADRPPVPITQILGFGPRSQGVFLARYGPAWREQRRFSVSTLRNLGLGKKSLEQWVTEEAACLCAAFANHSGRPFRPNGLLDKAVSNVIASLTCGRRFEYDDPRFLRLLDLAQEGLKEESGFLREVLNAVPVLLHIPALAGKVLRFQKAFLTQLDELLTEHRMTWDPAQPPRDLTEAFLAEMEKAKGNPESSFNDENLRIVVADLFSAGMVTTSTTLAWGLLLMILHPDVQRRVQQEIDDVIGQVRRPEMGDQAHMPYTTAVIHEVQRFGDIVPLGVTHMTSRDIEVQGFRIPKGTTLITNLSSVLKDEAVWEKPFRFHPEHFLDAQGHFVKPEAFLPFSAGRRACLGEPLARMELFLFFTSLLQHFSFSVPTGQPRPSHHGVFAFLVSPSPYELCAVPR

Row | Ki (human AT1R) [nM] | Ki (human AT2R) [nM] | Stability in liver microsomes HLM [1] [min] | inhibition at 10 min, 10 µM (CYP2B6) [%] | inhibition at 10 min, 10 µM (CYP3A [2]) [%] | inhibition at 10 min, 10 µM (CYP1A) [%] | inhibition at 10 min, 10 µM (CYP2C9) [%] | inhibition at 10 min, 10 µM (CYP2C19) [%] | inhibition at 10 min, 10 µM (CYP2C8) [%] | inhibition at 10 min, 10 µM (CYP3A [3]) [%] | inhibition at 10 min, 10 µM (CYP2D6) [%] | SMILES
1 | 1000 | 41 | >60 | – | – | – | – | – | – | – | – | CCCCOC(=O)NS(=O)(=O)c1sc(CC(C)C)nc1-c1ccc(Cn2ccnc2-c2nccs2)cc1 [Example 16, Butyl ((2-isobutyl-4-(4-((2-(thiazol-2-yl)-1H-imidazol-1-yl)methyl)phenyl)thiazol-5-yl)su Ifonyl)carbamate]
2 | 1000 | 12 | >60 | – | – | – | – | – | – | – | – | CCCCOC(=O)NS(=O)(=O)c1sc(CC(C)C)nc1-c1ccc(Cn2ccnc2C(C)(C)O)cc1 [Example 17A, Butyl ((4-(4-((2-(2-hydroxypropan-2-yl)-1H-imidazol-1-yl)methyl)phenyl)-2-isobutylthiazol-5-yl)sulfonyl)carbamate]
3 | 15000 | 2.3 | – | 6.9 | 9.98 | -5.97 | 42.2 | 43.3 | 70.3 | 18.1 | 16.2 | COC(=O)NS(=O)(=O)c1ccc(CC(C)C)cc1-c1ccc(Cn2ccnc2C(C)(C)F)cc1 [Example 34, Methyl ((4′-((2-(2-fluoropropan-2-yl)-1H-imidazol-1-yl)methyl)-5-isobutyl-[1,1′-biphenyl]-2-yl)sulfonyl)carbamate]
4 | 1000 | 5.8 | >60 | – | – | – | – | – | – | – | – | CCCCOC(=O)NS(=O)(=O)c1sc(CC(C)C)nc1-c1ccc(Cn2ccnc2C(C)C)cc1 [Example 18, Butyl ((2-isobutyl-4-(4-((2-isopropyl-1H-imidazol-1-yl)methyl)phenyl)thiazol-5-yl)sulfonyl)carbamate]
5 | – | – | – | 29.8 | -11.7 | -3.04 | 43.7 | 31 | 66.5 | 8.43 | 17.1 | CCCCOC(=O)NS(=O)(=O)c1ccc(CC(C)C)cc1-c1ccc(Cn2ccnc2C(C)(C)F)cc1 [Example 32, Butyl ((4′-((2-(2-fluoropropan-2-yl)-1H-imidazol-1-yl)methyl)-5-isobutyl-[1,1′-biphenyl]-2-yl)sulfonyl)carbamate]

Source: patent publication US20230159467A1, “NOVEL COMPOUNDS USEFUL IN THE TREATMENT AND/OR PREVENTION OF A DISEASE, DISORDER OR CONDITION ASSOCIATED WITH ANGIOTENSIN II” (Vicore Pharma AB, priority 2020, published 2023)
